Source: article PMC4640650 (Science Advances, 2015)

Molecular target: ATP synthase c-subunit (c9 rotor ring) (Mycolicibacterium phlei, UniProt A0A5N5V239)
Assay: X-ray cocrystal structure
Assay type: binding

Compound: COc1nc2ccc(Br)cc2cc1[C@@H](c1ccccc1)[C@@](O)(CCN(C)C)c1cccc2ccccc12 [BDQ, Bedaquiline]
- IC50: 20 to 25 nM
